Experiments:
[1] = molecular target: T1, purified human Factor XIa (Homo sapiens, UniProt P03951); test: Factor XIa Assay; type: biochemical; settings: fluorogenic substrate Z-Gly-Pro-Arg-AFC 100 μM, 40 pM enzyme, pH 7.4, read-out: F11a IC50
T1 construct: purified human Factor XIa; purchased Sekisui Diagnostics
Procedure: The effectiveness of a compound of the present invention as an inhibitor of Coagulation Factor XIa can be determined using a relevant purified serine protease, and an appropriate synthetic substrate. The rate of hydrolysis of the chromogenic or fluorogenic substrate by the relevant serine protease was measured both in the absence and presence of compounds of the present invention. Assays were conducted at room temperature or at 37° C. […] A decrease in the rate of fluorescence change in the presence of inhibitor is indicative of enzyme inhibition. Such methods are known to one skilled in the art. […]
Factor XIa determinations were made in 50 mM HEPES buffer at pH 7.4 containing 150 mM NaCl, 5 mM CaCl2, and 0.1% PEG 8000 (polyethylene glycol; JT Baker or Fisher Scientific). Determinations were made using purified human Factor XIa at a final concentration of 40 pM (Sekisui Diagnostics) and he synthetic substrate, Z-Gly-Pro-Arg-AFC, TFA salt (Sigma #C0980) at a concentration of 100 μM.
Activity assays were performed by diluting a stock solution of substrate at least tenfold to a final concentration ≦0.1 Km into a solution containing enzyme or enzyme equilibrated with inhibitor. Times required to achieve equilibration between enzyme and inhibitor were determined in control experiments. Initial velocities of product formation in the absence (VO) or presence of inhibitor (Vi) were measured. Assuming competitive inhibition, and that unity is negligible compared Km/[S], [I]/e, and [I]/e (where [S], [I], and e respectively represent the total concentrations, of substrate, inhibitor and enzyme), the equilibrium constant (Ki) for dissociation of the inhibitor from the enzyme can be obtained from the dependence of VO/Vi on [I] shown in the following equation.

[2] = molecular target: T2, purified Human plasma kallikrein (Homo sapiens, UniProt P03952); test: Kallikrein Assay; type: biochemical; settings: Plasma Kallekrein IC50; fluorogenic substrate Acetyl-K-P-R-AFC, 0.5 nM enzyme, pH 7.4; read-out: PK IC50
T2 construct: yields a heavy chain (371 amino acids) and a light chain (248 amino acids); purchased Enzyme Research Laboratories
Procedure: The effectiveness of a compound of the present invention as an inhibitor of Kallikrein can be determined using a relevant purified serine protease, and an appropriate synthetic substrate. The rate of hydrolysis of the chromogenic or fluorogenic substrate by the relevant serine protease was measured both in the absence and presence of compounds of the present invention. Assays were conducted at room temperature or at 37° C. […] A decrease in the rate of fluorescence change in the presence of inhibitor is indicative of enzyme inhibition. Such methods are known to one skilled in the art. The results of this assay are expressed as the inhibitory constant, K1.
Kallikrein determinations were made in 50 mM HEPES buffer at pH 7.4 containing 150 mM NaCl, 5 mM CaCl2, and 0.1% PEG 8000 (polyethylene glycol; Fisher Scientific). Determinations were made using purified Human plasma kallikrein at a final concentration of 0.5 nM (Enzyme Research Laboratories) and the synthetic substrate, Acetyl-K—P—R-AFC (Sigma # C6608) at a concentration of […].
Times required to achieve equilibration between enzyme and inhibitor were determined in control experiments. The reactions were performed under linear progress curve conditions and fluorescence increase measured at 405 Ex/510 Em nm. […] IC50 was determined by inflection point from a four parameter logistic curve fit. Ki was calculated using the Cheng Prusoff equation, Ki=IC50/(1+([S]/Km)).

T1 sequence (P03951 388-625 limits assumed): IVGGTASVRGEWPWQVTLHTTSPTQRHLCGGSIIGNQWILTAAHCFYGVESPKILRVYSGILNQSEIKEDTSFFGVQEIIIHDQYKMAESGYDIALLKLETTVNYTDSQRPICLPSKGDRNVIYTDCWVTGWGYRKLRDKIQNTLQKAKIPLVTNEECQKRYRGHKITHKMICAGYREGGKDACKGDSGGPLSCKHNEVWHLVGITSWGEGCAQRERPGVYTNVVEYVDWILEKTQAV
T1 sequence (P03951 19-387 partner limits assumed): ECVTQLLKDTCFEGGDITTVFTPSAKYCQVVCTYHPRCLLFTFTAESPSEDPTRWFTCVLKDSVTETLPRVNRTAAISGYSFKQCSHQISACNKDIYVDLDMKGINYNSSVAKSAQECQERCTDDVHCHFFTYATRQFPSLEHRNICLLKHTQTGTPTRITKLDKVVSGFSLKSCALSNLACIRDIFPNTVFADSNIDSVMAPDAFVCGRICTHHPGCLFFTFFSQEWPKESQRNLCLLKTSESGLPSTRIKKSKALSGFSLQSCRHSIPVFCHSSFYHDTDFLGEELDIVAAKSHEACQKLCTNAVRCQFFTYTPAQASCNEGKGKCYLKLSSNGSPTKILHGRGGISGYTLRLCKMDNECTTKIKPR
T2 sequence (P03952 391-638 limits assumed): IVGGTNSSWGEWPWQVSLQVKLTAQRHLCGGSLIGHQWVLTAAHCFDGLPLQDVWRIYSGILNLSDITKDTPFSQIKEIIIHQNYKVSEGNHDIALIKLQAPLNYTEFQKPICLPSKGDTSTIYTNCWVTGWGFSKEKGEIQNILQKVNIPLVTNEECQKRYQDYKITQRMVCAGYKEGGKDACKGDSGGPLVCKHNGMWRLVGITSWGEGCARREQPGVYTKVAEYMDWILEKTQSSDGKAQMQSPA
T2 sequence (P03952 20-390 partner limits assumed): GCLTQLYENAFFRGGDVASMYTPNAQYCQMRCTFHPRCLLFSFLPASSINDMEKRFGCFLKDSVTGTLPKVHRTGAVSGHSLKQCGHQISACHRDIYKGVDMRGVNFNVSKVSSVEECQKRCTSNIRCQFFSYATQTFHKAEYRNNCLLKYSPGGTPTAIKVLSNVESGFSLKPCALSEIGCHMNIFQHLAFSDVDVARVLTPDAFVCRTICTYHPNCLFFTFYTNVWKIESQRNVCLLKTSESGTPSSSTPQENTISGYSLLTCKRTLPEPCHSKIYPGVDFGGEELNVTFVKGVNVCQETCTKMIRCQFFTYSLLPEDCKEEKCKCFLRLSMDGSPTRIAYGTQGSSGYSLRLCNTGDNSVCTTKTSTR

| SMILES | IC50 [1] | IC50 [2] |
| --- | --- | --- |
| [O-][n+]1cc(-c2cc(Cl)ccc2-n2cnnn2)ccc1C(Cc1ccc(F)cc1)c1nc(-c2ccc(F)cc2)c[nH]1 (single isomer, unassigned) [Example 17] | 14.8 nM | 404 nM |
| O=C(O)c1scc(-c2c[nH]c(C(Cc3ccccc3)c3ccc(-c4cc(Cl)ccc4-n4cnnn4)c[n+]3[O-])n2)c1F (single isomer, unassigned) [Example 10] | 10.1 nM | 117 nM |
| COC(=O)Nc1ccc(-c2cnc([C@H](Cc3ccccc3)c3ccc(-c4cc(Cl)ccc4-c4cnco4)c[n+]3[O-])[nH]2)cc1 [Example 25] | 3.31 nM | 24.1 nM |
| COC(=O)Nc1ccc(-c2cnc(C(CC3CC3)c3ccc(-c4cc(Cl)ccc4-n4cnnn4)c[n+]3[O-])[nH]2)c(C)c1 (single isomer, unassigned) [Example 34] | 0.24 nM | 31.3 nM |
| [O-][n+]1cc(-c2cc(Cl)ccc2-n2cnnn2)ccc1C(Cc1ccc(F)cc1)c1nc(-c2ccc(F)cc2)c[nH]1 (single isomer, unassigned) [Example 16] | 3.82 nM | 0.78 nM |
| COC(=O)Nc1ccc(-c2nc([C@@H](Cc3ccccc3)c3ccc(-c4cc(Cl)ccc4-n4cnnn4)c[n+]3[O-])[nH]c2Cl)cc1 [Example 2, (S) 5-(5-Chloro-2-(1H-tetrazol-1-yl)phenyl)-2-(1-(5-chloro-4-(4-((methoxycarbonyl)amino)phenyl)-1H-imidazol-2-yl)-2-phenylethyl)pyridine 1-oxide] | 2.82 nM | 76.1 nM |
| COC(=O)Nc1ccc(-c2cnc([C@@H](Cc3ccccc3)c3ccc(-c4c(-n5cnnn5)ccc(Cl)c4F)c[n+]3[O-])[nH]2)cc1 [Example 24] | 2.36 nM | 88.7 nM |
| N#Cc1cccc(-c2cnc(C(CC3CC3)c3ccc(-c4cc(Cl)ccc4-n4cnnn4)c[n+]3[O-])[nH]2)c1 (single isomer, unassigned) [Example 36] | 27.4 nM | 377 nM |
| [O-][n+]1cc(-c2cc(Cl)ccc2-n2cnnn2)ccc1C(CC1CC1)c1ncc(-c2cccc(F)c2)[nH]1 (single isomer, unassigned) [Example 32] | 14.7 nM | 428 nM |
| COC(=O)Nc1ccc(-c2cnc(C(CC3CC3)c3ccc(-c4cc(Cl)ccc4-n4cnnn4)c[n+]3[O-])[nH]2)cc1F (single isomer, unassigned) [Example 40] | 1.52 nM | 39 nM |
| O=C(O)c1scc(-c2c[nH]c(C(Cc3ccccc3)c3ccc(-c4cc(Cl)ccc4-n4cnnn4)c[n+]3[O-])n2)c1F (single isomer, unassigned) [Example 9] | 0.19 nM | 0.94 nM |
| COC(=O)Nc1ccc(-c2cnc([C@H](Cc3ccccc3)c3ccc(-c4c(-n5cnnn5)ccc(Cl)c4F)c[n+]3[O-])[nH]2)cc1 [Example 23] | 1.04 nM | 1.54 nM |
| COC(=O)Nc1ccc(-c2c[nH]c(C(Cc3ccccc3)c3ccc(-c4c(F)ccc(Cl)c4F)c[n+]3[O-])n2)cc1 (single isomer, unassigned) [Example 5] | 42.2 nM | 137 nM |
| COC(=O)Nc1ccc(-c2c[nH]c(C(Cc3ccc(F)cc3)c3ccc(-c4cc(Cl)ccc4C(F)F)c[n+]3[O-])n2)cc1 (single isomer, unassigned) [Example 11, 5-(5-chloro-2-(difluoromethyl)phenyl)-2-(2-(4-fluorophenyl)-1-(4-(4-((methoxycarbonyl)amino)phenyl)-1H-imidazol-2-yl)ethyl)pyridine 1-oxide] | 1.86 nM | 10.1 nM |
| COC(=O)Nc1ccc(-c2cnc(C(CC3CC3)c3ccc(-c4cc(Cl)ccc4-n4cnnn4)c[n+]3[O-])[nH]2)cc1 (single isomer, unassigned) [Example 28, 5-(5-chloro-2-(1H-tetrazol-1-yl)phenyl)-2-(2-cyclopropyl-1-(5-(4-((methoxycarbonyl)amino)phenyl)-1H-imidazol-2-yl)ethyl)pyridine 1-oxide] | – | 20.8 nM |
| COC(=O)Nc1ccc(-c2cnc(C(CC3CC3)c3ccc(-c4cc(Cl)ccc4-n4cnnn4)c[n+]3[O-])[nH]2)cc1 (single isomer, unassigned) [Example 27, 5-(5-chloro-2-(1H-tetrazol-1-yl)phenyl)-2-(2-cyclopropyl-1-(5-(4-((methoxycarbonyl)amino)phenyl)-1H-imidazol-2-yl)ethyl)pyridine 1-oxide] | – | 207 nM |

Other lines, results leading:

| IC50 [1] | IC50 [2] | SMILES |
| --- | --- | --- |
| 0.87 nM | 80 nM | O=C(O)c1cccc(-c2cnc(C(CC3CC3)c3ccc(-c4cc(Cl)ccc4-n4cnnn4)c[n+]3[O-])[nH]2)c1F (single isomer, unassigned) [Example 51, 3-[2-(1-{5-[5-chloro-2-(1H-tetrazol-1-yl)phenyl]-1-oxidopyridin-2-yl}-2-cyclopropylethyl)-1H-imidazol-5-yl]-2-fluorobenzoic acid] |
| 1.52 nM | 48 nM | COC(=O)Nc1ccc(-c2[nH]c(C(CC3CC3)c3ccc(-c4cc(Cl)ccc4-n4cnnn4)c[n+]3[O-])nc2C)cc1 (single isomer, unassigned) [Example 77, methyl {4-[2-(1-{5-[5-chloro-2-(1H-tetrazol-1-yl)phenyl]-1-oxidopyridin-2-yl}-2-cyclopropylethyl)-4-methyl-1H-imidazol-5-yl]phenyl}carbamate] |
| 1.2 nM | 68 nM | COC(=O)Nc1ccc(-c2nnc(C(Cc3ccccc3)c3ccc(-c4cc(Cl)ccc4-n4cnnn4)c[n+]3[O-])o2)cc1 (racemic) [Example 83, 5-(5-chloro-2-(1H-tetrazol-1-yl)phenyl)-2-(1-(5-(4-((methoxycarbonyl)amino)phenyl)-1,3,4-oxadiazol-2-yl)-2-phenylethyl)pyridine 1-oxide] |
| 19.5 nM | 2120 nM | Nc1ccc(-c2c[nH]c(C(CC3CC3)c3ccc(-c4cc(Cl)ccc4-n4cnnn4)c[n+]3[O-])n2)cn1 (single isomer, unassigned) [Example 49] |
| 1.52 nM | 14.7 nM | COC(=O)Nc1ccc(-c2cnc(C(CC3(C)CC3)c3ccc(-c4cc(Cl)ccc4-n4cnnn4)c[n+]3[O-])[nH]2)cc1 (single isomer, unassigned) [Example 44] |
| 4.9 nM | 76 nM | NC(=O)c1scc(-c2cnc(C(CC3CC3)c3ccc(-c4cc(Cl)ccc4-n4cnnn4)c[n+]3[O-])[nH]2)c1F (single isomer, unassigned) [Example 60, 2-(1-(5-(5-carbamoyl-4-fluorothiophen-3-yl)-1H-imidazol-2-yl)-2-cyclopropylethyl)-5-(5-chloro-2-(1H-tetrazol-1-yl)phenyl)pyridine 1-oxide] |
| 48 nM | 358 nM | COC(=O)Nc1ccc(-c2cnc(C(CC3CC3)c3ccc(-c4cc(Cl)ccc4-c4cnco4)c[n+]3[O-])[nH]2)cc1 (single isomer, unassigned) [Example 69] |
| 0.58 nM | 28.1 nM | COC(=O)Nc1ccc(-c2cnc(C(CC3CC3)c3ccc(-c4cc(Cl)ccc4-n4cnnn4)c[n+]3[O-])[nH]2)c(Cl)c1 (single isomer, unassigned) [Example 42] |
| 0.9 nM | 62 nM | O=C(O)c1cccc(-c2c[nH]c(C(CC3CC3)c3ccc(-c4cc(Cl)ccc4-n4cnnn4)c[n+]3[O-])n2)c1 (single isomer, unassigned) [Example 53] |
| – | 231 nM | COC(=O)Nc1ccc(-c2c[nH]c(C(CC3CC3)c3ccc(-c4c(-n5cnnn5)ccc(Cl)c4F)c[n+]3[O-])n2)cc1 (single isomer, unassigned) [Example 63, 5-(3-chloro-2-fluoro-6-(1H-tetrazol-1-yl)phenyl)-2-(2-cyclopropyl-1-(4-(4-((methoxycarbonyl)amino)phenyl)-1H-imidazol-2-yl)ethyl)pyridine 1-oxide] |

Source: patent US9868727B2, “Factor XIa inhibitors” (Merck Sharp & Dohme Corp., priority 2014, dated 2018)
